Results as given in patent publication US12114689B2 (NICOVENTURES TRADING LIMITED, priority 2018, dated 2024).

Columns and labels:
[1] = cited from earlier work
[2] = binding energy with the cyclodextrin host; conditions: such as (2-Hydroxypropyl)-β-cyclodextrin
Text: The flavor components should be added last; this is due to the generally higher binding energy (vs. nicotine) with the cyclodextrin host. […] For menthol example, the approximate binding energies are −4.13 Kcal·mol^−1 (nicotine) and −5.06 Kcal·mol^−1 (menthol). […] Microfiltration may then be performed, in this case, to remove any excess menthol which has not formed a complex with cyclodextrin.

Compound	solubility in water compared to base cyclodextrins such as β-cyclodextrin [1]	approximate binding energy with the cyclodextrin host [2]
2-hydroxy-propyl-β-cyclodextrin [2-hydroxy-propyl-O-cyclodextrin]	increased solubility in water	
CN1CCC[C@H]1c1cccnc1 (stereo in doubt) [Nicotine, 3-(1-methylpyrrolidin-2-yl) pyridine]		~-4.13 kcal/mol
CC1CCC(C(C)C)C(O)C1 (stereo not drawn) [menthol]		~-5.06 kcal/mol
